# Data reported in PubChem BioAssay (NCI).
#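 Following 48 hours of exposure in 96-well plates, responses at five concentrations were used to interpolate endpoints linearly. TGI denotes the concentration required for complete inhibition of growth.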
# How the values were obtained:
# Assay in all cases: inhibition of tumour cell growth, NCI panel, 48 h
# SF-539 CNS = test system: SF-539 CNS
# HS 578T breast = test system: HS 578T breast
# UACC-257 melanoma = test system: UACC-257 melanoma
# HOP-62 NSCLC = test system: HOP-62 NSCLC
# RPMI-8226 leukemia = test system: RPMI-8226 leukemia
# SK-MEL-28 melanoma = test system: SK-MEL-28 melanoma
# MDA-MB-231 breast = test system: MDA-MB-231 breast
# OVCAR-3 ovarian = test system: OVCAR-3 ovarian
# SR leukemia = test system: SR leukemia
# NCI-H522 lung = test system: NCI-H522 lung
# MCF7 breast = test system: MCF7 breast
# U251 CNS = test system: U251 CNS
# A549 NSCLC = test system: A549 NSCLC
# SNB-75 CNS = test system: SNB-75 CNS
# EKVX NSCLC = test system: EKVX NSCLC
# K-562 leukemia = test system: K-562 leukemia
# NCI-H460 lung = test system: NCI-H460 lung
# HCC-2998 colon = test system: HCC-2998 colon
# SF-295 CNS = test system: SF-295 CNS
# IGROV1 ovarian = test system: IGROV1 ovarian
# ACHN renal = test system: ACHN renal
# TK-10 renal = test system: TK-10 renal
# SNB-19 CNS = test system: SNB-19 CNS
# MDA-N = test system: MDA-N
# UO-31 renal = test system: UO-31 renal
# CAKI-1 renal = test system: CAKI-1 renal
# UACC-62 melanoma = test system: UACC-62 melanoma
# SK-MEL-2 melanoma = test system: SK-MEL-2 melanoma
# HCT-116 colon = test system: HCT-116 colon
# SF-268 CNS = test system: SF-268 CNS
# OVCAR-5 ovarian = test system: OVCAR-5 ovarian
# NCI/ADR-RES ovarian = test system: NCI/ADR-RES ovarian
# MDA-MB-435 = test system: MDA-MB-435
# T-47D breast = test system: T-47D breast
# CCRF-CEM leukemia = test system: CCRF-CEM leukemia
# HT29 colon = test system: HT29 colon
# DU-145 prostate = test system: DU-145 prostate
# MALME-3M melanoma = test system: MALME-3M melanoma
# LOX IMVI melanoma = test system: LOX IMVI melanoma
# SW-620 colon = test system: SW-620 colon
# BT-549 breast = test system: BT-549 breast
# 786-0 renal = test system: 786-0 renal
# OVCAR-8 ovarian = test system: OVCAR-8 ovarian
# COLO 205 colon = test system: COLO 205 colon
# RXF 393 renal = test system: RXF 393 renal
# OVCAR-4 ovarian = test system: OVCAR-4 ovarian
# SK-OV-3 ovarian = test system: SK-OV-3 ovarian
# SK-MEL-5 melanoma = test system: SK-MEL-5 melanoma
# KM12 colon = test system: KM12 colon
# HCT-15 colon = test system: HCT-15 colon
# PC-3 prostate = test system: PC-3 prostate
# MOLT-4 leukemia = test system: MOLT-4 leukemia
# NCI-H226 lung = test system: NCI-H226 lung
# SN12C renal = test system: SN12C renal
# NCI-H23 lung = test system: NCI-H23 lung
# HOP-92 NSCLC = test system: HOP-92 NSCLC
# HL-60(TB) leukemia = test system: HL-60(TB) leukemia
# M14 melanoma = test system: M14 melanoma
smiles,measurement,setting,value
Cc1cc(C)nc(NS(=O)(=O)c2ccc(NNc3c4ccccc4nc4c(C(=O)Nc5ccc(S(N)(=O)=O)cc5)cccc34)cc2)n1,TGI,SF-539 CNS,> 100 µM
same,TGI,HS 578T breast,> 100 µM
same,TGI,UACC-257 melanoma,> 100 µM
same,TGI,HOP-62 NSCLC,> 100 µM
same,TGI,RPMI-8226 leukemia,> 100 µM
same,TGI,SK-MEL-28 melanoma,92.3 µM
same,TGI,MDA-MB-231 breast,89 µM
same,TGI,OVCAR-3 ovarian,> 100 µM
same,TGI,SR leukemia,73.3 µM
same,TGI,NCI-H522 lung,85.8 µM
same,TGI,MCF7 breast,> 100 µM
same,TGI,U251 CNS,70.3 µM
same,TGI,A549 NSCLC,> 100 µM
same,TGI,SNB-75 CNS,33 µM
same,TGI,EKVX NSCLC,> 100 µM
same,TGI,K-562 leukemia,> 100 µM
same,TGI,NCI-H460 lung,> 100 µM
same,TGI,HCC-2998 colon,84.3 µM
same,TGI,SF-295 CNS,> 100 µM
same,TGI,IGROV1 ovarian,> 100 µM
same,TGI,ACHN renal,> 100 µM
same,TGI,TK-10 renal,> 100 µM
same,TGI,SNB-19 CNS,> 100 µM
same,TGI,MDA-N,> 100 µM
same,TGI,UO-31 renal,> 100 µM
same,TGI,CAKI-1 renal,> 100 µM
same,TGI,UACC-62 melanoma,> 100 µM
same,TGI,SK-MEL-2 melanoma,46.7 µM
same,TGI,HCT-116 colon,> 100 µM
same,TGI,SF-268 CNS,> 100 µM
same,TGI,OVCAR-5 ovarian,> 100 µM
same,TGI,NCI/ADR-RES ovarian,> 100 µM
same,TGI,MDA-MB-435,> 100 µM
same,TGI,T-47D breast,> 100 µM
same,TGI,CCRF-CEM leukemia,83.6 µM
same,TGI,HT29 colon,> 100 µM
same,TGI,DU-145 prostate,> 100 µM
same,TGI,MALME-3M melanoma,> 100 µM
same,TGI,LOX IMVI melanoma,> 100 µM
same,TGI,SW-620 colon,> 100 µM
same,TGI,BT-549 breast,> 100 µM
same,TGI,786-0 renal,> 100 µM
same,TGI,OVCAR-8 ovarian,> 100 µM
same,TGI,COLO 205 colon,> 100 µM
same,TGI,RXF 393 renal,> 100 µM
same,TGI,OVCAR-4 ovarian,> 100 µM
same,TGI,SK-OV-3 ovarian,> 100 µM
same,TGI,SK-MEL-5 melanoma,> 100 µM
same,TGI,KM12 colon,> 100 µM
same,TGI,HCT-15 colon,> 100 µM
same,TGI,PC-3 prostate,32.9 µM
same,TGI,MOLT-4 leukemia,> 100 µM
same,TGI,NCI-H226 lung,> 100 µM
same,TGI,SN12C renal,> 100 µM
same,TGI,NCI-H23 lung,> 100 µM
same,TGI,HOP-92 NSCLC,> 100 µM
same,TGI,HL-60(TB) leukemia,> 100 µM
same,TGI,M14 melanoma,> 100 µM
